{
  "source": "patent US6780839B2",
  "about": "“Use of secretin-receptor ligands in treatment of cystic fibrosis (CF) and chronic obstructive pulmonary disease (COPD)” (Pharmagene Laboratories Ltd., priority 2000, dated 2004)",
  "key": {"[1]": {"tested_on": "human tertiary bronchus from non-CF donors", "test": "Short circuit current across the bronchial wall, modified Ussing chamber", "assay_type": "cell-based", "text": "In brief, non-branching regions of the human tertiary bronchus from non-CF donors were dissected, cut longitudinally and mounted in between the two compartments of a modified Ussing chamber to measure the short circuit current across the bronchial wall. Both luminal (airway) and basolateral membranes were bathed in oxygenated Krebs extracellular solution and the tissue voltage clamped to zero to allow changes in short circuit current in response to secretin to be measured. Amiloride at a concentration of 10 μM was initially added to the luminal membrane (FIG. 5, point a)(as described by those in the art) to partially block the predominant sodium ion current and unmask underlying ionic currents. On attainment of a stable base line, 3 μM human secretin (supplied by Sigma, catalogue number S714) was added to the luminal membrane (FIG. 5, point b)."}, "[2]": {"tested_on": "human CF tertiary bronchus", "test": "Short circuit current in CF bronchus, modified Ussing chamber", "assay_type": "cell-based", "experimental": "The experiment described above was repeated using human CF tertiary bronchus, using 1 μM secretin."}, "[3]": {"tested_on": "primary human tertiary bronchial epithelial cells", "test": "Cl- efflux by MQAE fluorescence", "assay_type": "cell-based", "conditions": "FIG. 8", "procedure": "Molecular Probes). In brief, primary human, tertiary bronchial epithelial cells were isolated as previously described and cultured in a 96 well plate. On reaching confluency, cells were loaded overnight with 4 mM MQAE. Cells were washed in a chloride containing HEPES buffer, before passive Cl^− efflux was initiated by the addition of a Cl^− free buffer. […] 100 nM Secretin mediated Cl^− efflux was inhibited by the non-selective Cl^− blocker NPPB (open circles)."}, "[4]": {"tested_on": "primary human tertiary bronchial epithelial cells derived from non-CF donors", "test": "Short circuit current in confluent tertiary bronchial epithelial cell monolayers, modified Ussing chamber", "assay_type": "cell-based", "text": "Functional effects of the secretin receptor were probed in epithelial cells derived from the human tertiary bronchus. In brief, tertiary bronchial epithelial were isolated by overnight protease digestion and then cultured until confluency on Snapwell (Costar) permeable supports. The supports were mounted in a modified Ussing chamber, and both luminal and basolateral membranes were bathed in oxygenated Krebs extracellular solution. The cells were voltage clamped to zero to allow changes in short circuit current Isc in response to secretin to be measured. As previously described, 10 μM amiloride was initially added to the luminal membrane (FIG. 6, point a)followed by the addition of 100 μM secretin to the luminal membrane (FIG. 6, point b). A time matched, amiloride-treated control is denoted by the thin trace."}, "rat cholangiocytes": {"tested_on": "rat cholangiocytes", "conditions": "by translocation of AQP-1 water channels; cited from earlier work"}, "rats": {"tested_on": "rats", "conditions": "injected intracerebroventricularly; cited from earlier work"}, "[5]": {"conditions": "10 μM ATP or UTP on apical membrane, FIG. 5 point c"}},
  "data": [
    {"compound": "O=c1ccn([C@@H]2O[C@H](COP(=O)(O)OP(=O)(O)OP(=O)(O)O)[C@@H](O)[C@H]2O)c(=O)[nH]1", "note": "[UTP]", "values": [
      {"measurement": "ionic movement (short circuit current)", "setting": "[1]; [5]", "value": "stimulate a similar ionic movement of similar magnitude"}
    ]},
    {"compound": "N=C(N)NC(=O)c1nc(Cl)c(N)nc1N", "note": "[amiloride]", "values": [
      {"measurement": "effect on underlying sodium current", "setting": "[2]; amiloride, FIG. 7 point a", "value": "blocks the underlying sodium current"}
    ]},
    {"compound": "O=C(O)c1cc([N+](=O)[O-])ccc1NCCCc1ccccc1", "note": "[NPPB, 5-nitro-2-(3-phenylpropyl-amino)benzoic acid]", "values": [
      {"measurement": "effect on secretin mediated changes in MQAE fluorescence (Cl- efflux)", "setting": "[3]; 100 μM NPPB with 100 nM secretin", "value": "abolished"}
    ]},
    {"compound": "secretin", "values": [
      {"measurement": "ionic movement (short circuit current)", "setting": "[1]; 3 μM human secretin on luminal membrane after 10 μM amiloride, FIG. 5", "value": "stimulate ionic movement in a manner consistent with the movement of a negatively charged ion"},
      {"measurement": "ionic movement (short circuit current Isc)", "setting": "[4]; 100 μM secretin on luminal membrane after 10 μM amiloride, FIG. 6", "value": "stimulated ionic movement in a manner consistent with the movement of a negatively charged ion"},
      {"measurement": "ionic movement (short circuit current)", "setting": "[2]; 1 μM secretin after amiloride, FIG. 7 point b", "value": "stimulates ionic movement of a negatively charged ion"},
      {"measurement": "Cl- efflux (changes in MQAE fluorescence)", "setting": "[3]; nanomolar concentrations of secretin (12.5 nM, 100 nM), Cl- free buffer", "value": "stimulated Cl^− efflux"},
      {"measurement": "concentration dependent increase in osmotic H2O permeability", "setting": "rat cholangiocytes", "value": 60, "unit": "%"},
      {"measurement": "defecation", "setting": "rats", "value": "significantly increased defecation"},
      {"measurement": "novel-object approaches", "setting": "rats", "value": "decreased novel-object approaches"},
      {"measurement": "stereotypic behaviour", "setting": "rats", "value": "no significant effects on stereotypic behaviour"}
    ]},
    {"compound": "Nc1ncnc2c1ncn2[C@@H]1O[C@H](COP(=O)(O)OP(=O)(O)OP(=O)(O)O)[C@@H](O)[C@H]1O", "note": "[ATP]", "values": [
      {"measurement": "ionic movement (short circuit current)", "setting": "[1]; [5]", "value": "stimulate a similar ionic movement of similar magnitude"}
    ]},
    {"compound": "COc1ccc(Cl)cc1C(=O)NCCc1ccc(S(=O)(=O)NC(=O)NC2CCCCC2)cc1", "note": "[glibenclamide]", "values": [
      {"measurement": "suppression of secretin mediated ionic movement", "setting": "[4]; 500 μM glibenclamide (CFTR inhibitor)", "value": "failed to suppress secretin mediated ionic movement"}
    ]}
  ]
}
